{"source": "patent US7550257B2", "about": "“Process for identifying substances which modulate the activity of hyperpolarization-activated cation channels” (Sanofi-Aventis Deutschland GmbH, priority 2000, dated 2009)", "key": {"muHCN2 [1]": {"molecular_target": "T1, muHCN2 (Mus musculus, UniProt O88703)", "T1 construct": "expressed in transfected cells", "T1 sequence (O88703 1-863)": "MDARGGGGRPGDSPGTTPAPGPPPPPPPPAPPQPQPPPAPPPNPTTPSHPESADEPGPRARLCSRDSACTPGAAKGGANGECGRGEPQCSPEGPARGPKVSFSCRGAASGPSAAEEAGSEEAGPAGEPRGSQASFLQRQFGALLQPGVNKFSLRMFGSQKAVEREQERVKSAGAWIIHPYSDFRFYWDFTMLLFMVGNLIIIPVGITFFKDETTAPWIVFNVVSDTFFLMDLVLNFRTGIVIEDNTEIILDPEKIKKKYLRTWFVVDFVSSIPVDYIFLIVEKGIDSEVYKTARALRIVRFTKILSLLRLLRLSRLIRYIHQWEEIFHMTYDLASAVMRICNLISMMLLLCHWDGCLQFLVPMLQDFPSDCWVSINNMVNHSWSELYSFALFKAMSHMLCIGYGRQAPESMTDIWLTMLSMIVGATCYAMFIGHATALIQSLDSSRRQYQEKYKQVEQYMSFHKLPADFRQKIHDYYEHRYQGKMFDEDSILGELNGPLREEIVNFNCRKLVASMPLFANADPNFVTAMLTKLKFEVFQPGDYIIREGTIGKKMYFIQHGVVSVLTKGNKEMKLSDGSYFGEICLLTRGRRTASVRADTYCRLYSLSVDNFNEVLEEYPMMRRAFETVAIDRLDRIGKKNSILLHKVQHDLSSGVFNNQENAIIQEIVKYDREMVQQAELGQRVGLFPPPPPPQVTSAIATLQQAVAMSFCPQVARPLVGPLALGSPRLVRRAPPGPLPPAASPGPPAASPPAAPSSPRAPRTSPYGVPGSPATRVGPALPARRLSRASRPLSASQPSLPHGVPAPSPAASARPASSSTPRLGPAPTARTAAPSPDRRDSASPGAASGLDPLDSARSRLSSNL", "assay": "FLIPR membrane potential assay (DiBac4(3)) with transfected HCN cells", "assay_type": "cell-based, murine", "conditions": "muHCN2-transfected CHO cells, relative change in fluorescence from the time 60 seconds, mean of 6 wells per concentration, read-out: IC50 of zatebradine (inhibition calculated from relative change in fluorescence)", "procedure": "The cells seeded on the microtiter plates are washed in an isoosmolar buffer in which NaCl has been replaced by choline chloride. However, this wash buffer also contains 5 mM KCl, since extracellular K^+ is important for HCN activation (Biel et al. 1999). This wash buffer, which serves to effect hyperpolarization of the HCN cells, also contains 5 μM DiBac4(3) for measuring changes in the membrane potential in the FLIPR. By removing the extracellular Na^+, the cells are hyperpolarized, i.e. the HCN is activated. However, the HCN is not capable of causing depolarization of the cells, since the required concentration gradient of the ions Na^+ or K^+ transported by HCN is missing. […] This is reflected in the fact that the initial fluorescence measured for HCN cells in the FLIPR at 10 μM forskolin is lower than that without forskolin, whereas there is no difference in nontransfected cells.\nSince DiBac4(3) fluorescence may be sensitive to temperature variations, the measurement is, after an incubation at 37° C. for 30 minutes, carried out as quickly as possible—cooling of the dye solution may affect the measured results. […]\nIn the FLIPR, Na^+ is added to the cells so that the activated HCN (after a few seconds, in which there are mixing effects) causes, from about 15 seconds after the addition of Na^+, depolarization of the cells, which becomes visible by an increase in fluorescence. […]"}, "muHCN2 [2]": {"molecular_target": "T1, muHCN2", "assay": "Patch-clamp (electrophysiological) examination in the same cells", "assay_type": "cell-based, murine", "conditions": "determined electrophysiologically in the same cells", "excerpt": "Using the patch-clamp method, the cells with detectable mRNA expression were examined electrophysiologically, in the whole-cell configuration, for functional expression of muHCN2. This method is described in detail in Hamill et al (1981), which is incorporated herein by reference. The cells were clamped to a holding potential of −40 mV. Starting with this holding potential, the ion channels were activated by a voltage change to […] for a period of one second. The current amplitude was determined the end of this pulse. Among the transfected HEK cells, some were found having currents of about 1 nA; however, owing to interfering endogenous currents, it was not possible to construct an assay for these cells in the FLIPR.\nElectrophysiologically, currents of up to 11 nA were measured. These cells were used for constructing an FLIPR assay for HCN2.\nUsing the transfected HCN cells, the effect of various concentrations of the substance zatebradine, which is known as an If blocker, were examined. The inhibition by zatebradine was calculated from the relative change in fluorescence from the time 60 seconds. For each concentration of the inhibitor, the mean of in each case 6 wells of the microtiter plate was determined."}}}
{"molecule": "COc1ccc(CCN(C)CCCN2CCc3cc(OC)c(OC)cc3CC2=O)cc1OC", "note": "[zatebradine, 3-[3-[[2-(3,4-dimethoxyphenyl)ethyl]methylamino]propyl]-1,3,4,5-tetrahydro-7,8-dimethoxy-2H-3-benzazepin-2-one]", "values": [{"measurement": "IC50", "setting": "muHCN2 [1]", "value": 26, "unit": "µM"}, {"measurement": "IC50", "setting": "muHCN2 [2]", "value": 31, "unit": "µM"}]}
